Columns and labels:
A30P cells = assay: Dopamine induced cell death, A30P cells (MTT); assay type: cell-based
G93A-SOD1 mice = details: other reported pharmacological treatments (literature); cited from earlier work

SMILES | % recovery (A30P cells; Dopamine 500 μm + complex 0.01 μM) [%] | % recovery (A30P cells; Dopamine 500 μm + complex 0.1 μM) [%] | Increased Life Span (G93A-SOD1 mice)
CN=C([S-])N/N=C(C)/C(C)=N/NC([S-])=NC.[64Cu+2] [Complex A2, copper(II)diacetylbis(N(4)-methylthiosemicarbazone)] | 105.90 | 97.77 | 
NCC1(CC(=O)O)CCCCC1 [Gabapentin] |  |  | No effect
CC(=O)Oc1ccccc1C(=O)O [Lysine Acetyl salicylate] |  |  | No effect
O=C1NC(=O)C(c2ccc(-c3ccccc3)cc2)(N2CCN(c3ccc([N+](=O)[O-])cc3)CC2)C(=O)N1 [Ro 28-2653] |  |  | 13 days

Reference: patent publication US11123350B2, “Metal delivery agents and therapeutic uses of the same” (THE UNIVERSITY OF MELBOURNE, priority 2006, dated 2021)
